The structures appear in SMILES notation. Bounds are passed on as bounds.

This assay has as its system NCI-H358 (K-Ras G12C). The assay can be described thus: CellTiter-Glo cell viability assay, NCI-H358. It counts as cell-based, human. Conditions: Table 5; read-out: H358 Cell Viability assay data (K-Ras G12C, IC50). The procedure: Note - The following protocol describes a procedure for monitoring cell viability of K-Ras mutant cancer cell lines in response to a compound of the invention. Other RAS isoforms may be employed, though the number of cells to be seeded will vary based on cell line used.
Test compounds (132.5 nL) were directly dispensed into the assay plates containing cells. […] On day 5, assay plates and their contents were equilibrated to room temperature for approximately 30 minutes. […] Luminescence was measured using the PerkinElmer Enspire. Data were normalized by the following: (Sample signal/Avg. DMSO)*100. The data were fit using a four-parameter logistic fit.
Background: ATP-based viability assays read luminescence as a measure of living cells.
A word on the IC50: it is the concentration that inhibits the measured activity by half. As to `C=CC(=O)N1CC[C@H](C(=O)N(C)[C@H](C(=O)N[C@H]2Cc3cc(N)cc(c3)-c3ccc4c(c3)c(c(-c3ccccc3CCOC)n4CC)CC(C)(C)COC(=O)[C@@H]3CCCN(N3)C2=O)C(C)C)C1` [Compound A2, (2S)-N-[(8S,14S)-4-amino-22-ethyl-21-[2-(2-methoxyethyl)phenyl]-18,18-dimethyl-9,15-dioxo-16-oxa-10,22,28-triazapentacyclo[18.5.2.1^2,6.1^10,^14.0^23,^27]nonacosa-1(26),2,4,6(29),20,23(27),24-heptaen-8-yl]-3-methyl-2-{N-methyl-1-[(3S)-1-(prop-2-enoyl)pyrrolidin-3-yl]formamido}butanamide], the IC50 is above 1000 nM.

In the case of `C=CC(=O)N1CC[C@H](C(=O)N(C)[C@H](C(=O)N[C@H]2Cc3cc(O)cc(c3)-c3ccc4c(c3)c(c(-c3ccc(CN(C)C)cc3)n4CC)CC(C)(C)COC(=O)[C@@H]3CCCN(N3)C2=O)C(C)C)C1` [Compound A3], the IC50 lay within 100 to 1000 nM.

Consider `C=CC(=O)N1CC[C@H](C(=O)N(C)[C@H](C(=O)N[C@H]2Cc3cc(O)cc(c3)-c3ccc4c(c3)c(c(-c3ccccc3CN(C)C)n4CC)CC(C)(C)COC(=O)[C@@H]3CCCN(N3)C2=O)C(C)C)C1` [Compound A5], for which the IC50 is 10 to 100 nM.

On to `C=CC(=O)N1CC[C@H](C(=O)N(C)[C@H](C(=O)N[C@H]2Cc3cc(O)cc(c3)-c3ccc4c(c3)c(c(-c3ccccc3CCOC)n4CC)CC(C)(C)COC(=O)[C@@H]3CCCN(N3)C2=O)C2CCOCC2)C1` [Compound A6], for which the IC50 was in the range of 100 to 1000 nM.

In the case of `C=CC(=O)N1CC[C@H](C(=O)N(C)[C@H](C(=O)N[C@H]2Cc3cc(OC(=O)CCN4CCN(C)CC4)cc(c3)-c3ccc4c(c3)c(c(-c3ccccc3CCOC)n4CC)CC(C)(C)COC(=O)[C@@H]3CCCN(N3)C2=O)C(C)C)C1` [Compound A7], the IC50 fell in the range of 100 to 1000 nM.

For `C=CC(=O)N1CC[C@H](C(=O)N(C)[C@H](C(=O)N[C@H]2Cc3cc(OC(=O)CN)cc(c3)-c3ccc4c(c3)c(c(-c3ccccc3CCOC)n4CC)CC(C)(C)COC(=O)[C@@H]3CCCN(N3)C2=O)C(C)C)C1` [Compound A8], the IC50 was in the range of 100 to 1000 nM.

As for `C=CC(=O)N1CC[C@H](C(=O)N(C)[C@H](C(=O)N[C@H]2Cc3cc(cc(O)c3F)-c3ccc4c(c3)c(c(-c3ccccc3CCOC)n4CC)CC(C)(C)COC(=O)[C@@H]3CCCN(N3)C2=O)C(C)C)C1` [Compound A9], the IC50 was in the range of 100 to 1000 nM.

Take `C=CC(=O)N1CCC(F)(C(=O)N(C)[C@H](C(=O)N[C@H]2Cc3cc(O)cc(c3)-c3ccc4c(c3)c(c(-c3ccccc3CCOC)n4CC)CC(C)(C)COC(=O)[C@@H]3CCCN(N3)C2=O)C(C)C)CC1` [Compound A11]: the IC50 was 100 to 1000 nM.

With `C=CC(=O)N1CCCN(C(=O)N(C)[C@H](C(=O)N[C@H]2Cc3cc(O)cc(c3)-c3ccc4c(c3)c(c(-c3ccccc3CCOC)n4CC)CC(C)(C)COC(=O)[C@@H]3CCCN(N3)C2=O)C(C)C)CC1` [Compound A13], the IC50 fell in the range of 100 to 1000 nM.

As for `C=CC(=O)N1CCC(C(=O)N(C)[C@H](C(=O)N[C@H]2Cc3cc(O)cc(c3)-c3ccc4c(c3)c(c(-c3ccccc3CCOC)n4CC)CC(C)(C)COC(=O)[C@@H]3CCCN(N3)C2=O)C(C)C)CC1` [Compound A14], the IC50 fell in the range of 100 to 1000 nM.

For `C=CC(=O)N1CC[C@H](C(=O)N(C)[C@H](C(=O)N[C@H]2Cc3cc(O)cc(c3)-c3ccc4c(c3)c(c(-c3cccnc3COC)n4CC)CC(C)(C)COC(=O)[C@@H]3CCCN(N3)C2=O)C(C)C)C1` [Compound A16], the IC50 was 10 to 100 nM.

On to `C=CC(=O)N1CC[C@H](C(=O)N(C)[C@H](C(=O)N[C@H]2Cc3cc(O)cc(c3)-c3ccc4c(c3)c(c(-c3ccccc3OC)n4CC)CC(C)(C)COC(=O)[C@@H]3CCCN(N3)C2=O)C(C)C)C1` [Compound A17], for which the IC50 was in the range of 100 to 1000 nM.

As to `C=CC(=O)N1CCN(C(=O)N(C)[C@H](C(=O)N[C@H]2Cc3cc(O)cc(c3)-c3ccc4c(c3)c(c(-c3ccccc3CCOC)n4CC)CC(C)(C)COC(=O)[C@@H]3CCCN(N3)C2=O)C(C)C)CC1` [Compound A18], the IC50 fell in the range of 100 to 1000 nM.

On to `CCn1c(-c2ccccc2CCOC)c2c3cc(ccc31)-c1cc(O)cc(c1)C[C@H](NC(=O)[C@H](C(C)C)N(C)C(=O)C1CCN(C(=O)/C=C/CN(C)C)CC1)C(=O)N1CCC[C@H](N1)C(=O)OCC(C)(C)C2` [Compound A19], for which the 50% inhibitory concentration (IC50) fell in the range of 100 to 1000 nM.

For `C=CC(=O)N1CCC(F)(C(=O)N(C)[C@H](C(=O)N[C@H]2Cc3cc(O)cc(c3)-c3ccc4c(c3)c(c(-c3ccccc3CN(C)C)n4CC)CC(C)(C)COC(=O)[C@@H]3CCCN(N3)C2=O)C(C)C)CC1` [Compound A20], the IC50 is 10 to 100 nM.

On to `C=CC(=O)N1CC[C@H](C(=O)N(C)[C@H](C(=O)N[C@H]2Cc3cc(O)cc(c3)-c3ccc4c(c3)c(c(-c3ccc(CC(=O)O)cc3)n4CC)CC(C)(C)COC(=O)[C@@H]3CCCN(N3)C2=O)C(C)C)C1` [Compound A21], for which the IC50 is above 1000 nM.

Regarding `C=CC(=O)N1CC[C@H](C(=O)N(C)[C@H](C(=O)N[C@H]2Cc3cc(O)cc(c3)-c3ccc4c(c3)c(c(-c3ccccc3[C@H](C)OC)n4CC)CC(C)(C)COC(=O)[C@@H]3CCCN(N3)C2=O)C(C)C)C1` [Compound A22], the half-maximal inhibitory concentration (IC50) lay in the range of 10 to 100 nM.

Turning to `C=CC(=O)N1CC[C@H](C(=O)N(C)[C@H](C(=O)N[C@H]2Cc3cc(O)cc(c3)-c3ccc4c(c3)c(c(-c3ccccc3)n4CC)CC(C)(C)COC(=O)[C@@H]3CCCN(N3)C2=O)C(C)C)C1` [Compound A23], the IC50 was in the range of 100 to 1000 nM.

`C=CC(=O)N1CC[C@H](C(=O)N(C)[C@H](C(=O)N[C@H]2Cc3cccc(c3)-c3ccc4c(c3)c(c(-c3ccccc3CCOC)n4CC)CC(C)(C)COC(=O)[C@@H]3CCCN(N3)C2=O)C(C)C)C1` [Compound A24]: the IC50 is above 1000 nM.

Turning to `C=CC(=O)N1CC[C@H](C(=O)N(C)[C@H](C(=O)N[C@H]2Cc3cc(O)cc(c3)-c3ccc4c(c3)c(c(-c3c(F)cccc3CCOC)n4CC)CC(C)(C)COC(=O)[C@@H]3CCCN(N3)C2=O)C(C)C)C1` [Compound A25], the IC50 fell in the range of 100 to 1000 nM.

Turning to `C=CC(=O)N1CC[C@H](C(=O)N(C)[C@H](C(=O)N[C@H]2Cc3cc(O)cc(c3)-c3ccc4c(c3)c(c(-c3ccccc3N3CCOCC3)n4CC)CC(C)(C)COC(=O)[C@@H]3CCCN(N3)C2=O)C(C)C)C1` [Compound A26], the half-maximal inhibitory concentration (IC50) fell in the range of 100 to 1000 nM.

Consider `C=CC(=O)N1CC[C@H](C(=O)N(C)[C@H](C(=O)N[C@H]2Cc3cc(O)cc(c3)-c3ccc4c(c3)c(c(-c3ccccc3COC)n4CC)CC(C)(C)COC(=O)[C@@H]3CCCN(N3)C2=O)C2CCCC2)C1` [Compound A27], for which the IC50 is 10 to 100 nM.

As for `C=CC(=O)N1CC[C@H](C(=O)N(C)[C@H](C(=O)N[C@H]2Cc3cc(O)cc(c3)-c3ccc4c(c3)c(c(-c3ccccc3[C@@H](C)OC)n4CC)CC(C)(C)COC(=O)[C@@H]3CCCN(N3)C2=O)C(C)C)C1` [Compound A29], the IC50 lay within 100 to 1000 nM.

For the molecule `C=CC(=O)N1CC[C@H](C(=O)N(C)[C@H](C(=O)N[C@H]2Cc3cc(O)cc(c3)-c3ccc4c(c3)c(c(-c3cccc(CN(C)C)c3)n4CC)CC(C)(C)COC(=O)[C@@H]3CCCN(N3)C2=O)C(C)C)C1` [Compound A30], the IC50 fell in the range of 10 to 100 nM.

For `C=CC(=O)N1CC2(CCN([C@H](C(=O)N[C@H]3Cc4cc(O)cc(c4)-c4ccc5c(c4)c(c(-c4ccccc4CCOC)n5CC)CC(C)(C)COC(=O)[C@@H]4CCCN(N4)C3=O)C(C)C)C2=O)C1` [Compound A31], the IC50 is 10 to 100 nM.

Take `C=CC(=O)N1CCC(C(=O)N(C)[C@H](C(=O)N[C@H]2Cc3cc(O)cc(c3)-c3ccc4c(c3)c(c(-c3ccccc3CN(C)C)n4CC)CC(C)(C)COC(=O)[C@@H]3CCCN(N3)C2=O)C(C)C)CC1` [Compound A33]: the IC50 is 100 to 1000 nM.

For the molecule `C=CC(=O)N1CC[C@H](C(=O)N(C)[C@H](C(=O)N[C@H]2Cc3cc(O)cc(c3)-c3ccc4c(c3)c(c(-c3ccccc3CCOC)n4C(C)(C)C#N)CC(C)(C)COC(=O)[C@@H]3CCCN(N3)C2=O)C(C)C)C1` [Compound A34], the IC50 was in the range of 10 to 100 nM.

For the molecule `C=CC(=O)N1CC[C@H](C(=O)N(C)[C@H](C(=O)N[C@H]2Cc3cc(O)cc(c3)-c3ccc4c(c3)c(c(-c3ccc5cc(CN(C)C)n(C)c5c3)n4CC)CC(C)(C)COC(=O)[C@@H]3CCCN(N3)C2=O)C(C)C)C1` [Compound A35], the half-inhibitory concentration (IC50) lay in the range of 10 to 100 nM.

In the case of `CCn1c(-c2ccccc2CCOC)c2c3cc(ccc31)-c1cc(O)cc(c1)C[C@H](NC(=O)[C@H](C(C)C)N(C)C(=O)[C@H]1CCN(C(=O)C#CCN(C)C)C1)C(=O)N1CCC[C@H](N1)C(=O)OCC(C)(C)C2` [Compound A38], the IC50 is below 10 nM.

Turning to `C=CC(=O)N1CC[C@H](C(=O)N(C)[C@H](C(=O)N[C@H]2Cc3cc(O)cc(c3)-c3ccc4c(c3)c(c(-c3ccc(C5CCN(C)CC5)cc3)n4CC)CC(C)(C)COC(=O)[C@@H]3CCCN(N3)C2=O)C(C)C)C1` [Compound A39], the IC50 was 10 to 100 nM.

`C=CC(=O)N1CC[C@H](C(=O)N(C)[C@H](C(=O)N[C@H]2Cc3cc(O)cc(c3)-c3ccc4c(c3)c(c(-c3ccc5c(c3)CCN(C)C5)n4CC)CC(C)(C)COC(=O)[C@@H]3CCCN(N3)C2=O)C(C)C)C1` [Compound A40]: the IC50 was 10 to 100 nM.

As to `C=CC(=O)N1C[C@H](C)[C@H](C(=O)N(C)[C@H](C(=O)N[C@H]2Cc3cc(O)cc(c3)-c3ccc4c(c3)c(c(-c3ccccc3CCOC)n4CC)CC(C)(C)COC(=O)[C@@H]3CCCN(N3)C2=O)C(C)C)C1` [Compound A41], the IC50 was in the range of 10 to 100 nM.

With `C=CC(=O)N1CC[C@H](C(=O)N(C)[C@H](C(=O)N[C@H]2Cc3cc(N)cc(c3)-c3ccc4c(c3)c(c(-c3ccccc3COC)n4CC)CC(C)(C)COC(=O)[C@@H]3CCCN(N3)C2=O)C(C)C)C1` [Compound A42], the concentration for half-maximal inhibition (IC50) was in the range of 100 to 1000 nM.

Take `C=CC(=O)N1C[C@H](C)[C@H](C(=O)N(C)[C@H](C(=O)N[C@H]2Cc3cc(O)cc(c3)-c3ccc4c(c3)c(c(-c3ccccc3CN(C)C)n4CC)CC(C)(C)COC(=O)[C@@H]3CCCN(N3)C2=O)C2CCCC2)C1` [Compound A43]: the IC50 was in the range of 10 to 100 nM.
